Experimental data as given in a melting point compilation (Tetko et al.; mined from patent text by program, amines drawn as free bases though some values may be those of a salt).

First: c1cc2c3c(cccc3c1)C(NCCCCCCCn1ccnc1)=N2
Second: CCCCc1nc2cccc(CC#N)c2n1Cc1ccccc1Cl
The melting point of the first is lower: 48 to 50 °C for the first, 124 to 125 °C for the second.

First: COc1ccc2c(c1)S(=O)c1nccnc1N2C (centres undefined)
Second: COc1ccc(-n2cc(C#N)c(=O)[nH]c2=O)c(C)c1
The melting point of the first is lower: 229 to 231 °C for the first, 276 to 278 °C for the second.

First: Cc1cccc(C(N)=O)c1SSc1c(C)cccc1C(N)=O
Second: CCCc1c(OCCCOc2cccc(NC(=O)C(=O)OCC)c2)ccc(C(C)=O)c1O
The melting point of the first is higher: 189 to 190 °C for the first, 52 to 57 °C for the second.

First: CCNC(=O)c1c([Si](C)(C)C)ccc(C(F)F)c1Cl
Second: CCOC(=O)c1c(OC)nc2c(C)cc(C)cc2c1-c1ccccc1Cl
The melting point of the first is lower: 120 to 121 °C for the first, 135 to 136 °C for the second.

First: CCOC(=O)Cc1nc(-c2ccc(C)cc2)oc1-c1ccco1
Second: Cc1ccc(S(=O)(=O)OCCc2nc(-c3ccc(Br)cc3)oc2C)cc1
The melting point of the first is lower: 84 to 85 °C for the first, 136 °C for the second.

First: Cc1cc(OCCN2CCC(n3cnc4cccnc43)CC2)nn1-c1ccc(Cl)c(Cl)c1
Second: Cc1cc(-c2c(-c3ccc(F)cc3)ncn2CCCN2CCOCC2)ccn1
The melting point of the first is lower: 104 to 107 °C for the first, 116 to 117 °C for the second.

First: CNC(=O)c1ccccc1Nc1nc(Nc2cc3c(cc2OC)CC(=O)NCC3)ncc1Cl
Second: COc1ccc(CNc2nc(OCc3ccccn3)ncc2C(=O)c2cc(OC)c(OC)c(OC)c2)cc1Cl
The melting point of the first is higher: greater than 250 °C for the first, 129 °C for the second.

Compared with COC(=O)C(Cl)C(Cl)c1ccccc1 (centres undefined), Nc1ccsc1C(=O)c1ccccc1 is lower in melting point: 164 to 165 °C for the first, 100 to 102 °C for the second.

First: CCCc1nc2c(N)nc3ccc(N)cc3c2s1
Second: CNCc1cc2cc(Nc3nc(N)n(C(=O)c4cccc(C)c4)n3)ccc2o1
The melting point of the first is higher: 190 to 192 °C for the first, 128 to 131 °C for the second.

First: CC(CSC(=O)c1ccccc1)C(=O)N1c2ccccc2CC1C(=O)O (centres undefined)
Second: CC(C)(C)OC(=O)N[C@@H](CC(=O)NCCC(=O)OCc1ccccc1)C(=O)OCc1ccccc1
The melting point of the first is higher: 116 to 117 °C for the first, 77 to 78 °C for the second.

First: CC(C)C1(C)N=C(c2ncc(C=O)cc2C(=O)O)NC1=O (centres undefined)
Second: CCC(C)NC(=O)OC1c2ccccc2C(=O)N1c1ccc2ccc(Cl)nc2n1 (centres undefined)
The melting point of the first is lower: 187 to 198 °C for the first, 220 to 222 °C for the second.

First: COC(=O)c1cc(-c2cc(C)[nH]c2C)nn1C
Second: Cc1cn(C(C)(C)C(=O)N(C)C)nc1-c1ccc(Cl)cc1Cl
The melting point of the first is lower: 63 to 65 °C for the first, 110 to 111 °C for the second.

First: Cc1ccc(C#CC#Cc2ccc(C)cc2)cc1
Second: Cc1ccc(S(=O)(=O)ON=C(CCN2C(=O)c3ccccc3C2=O)n2nc(C)c(Cl)c2N)cc1
The melting point of the first is higher: 182 to 183 °C for the first, 168 to 171 °C for the second.

First: NS(=O)(=O)c1ccc(N2CCN(CC3OCCc4ccccc43)CC2)cc1 (racemic)
Second: COC1=C(OC)C(=O)C2=C(CC(CCCCCCCCN3CCN(c4ccccn4)CC3)C2)C1=O
The melting point of the first is higher: 218 °C for the first, 80 to 84 °C for the second.

First: CCCCCCCCCCCCSCCOc1ccc(CCC(=O)OC)cc1
Second: O=C(NO)c1ccc(CNC(=O)c2[nH]c(-c3cccs3)cc2-c2ccc(F)cc2)cn1
The melting point of the first is lower: 48 °C for the first, 189 to 191 °C for the second.

Compared with Nc1ccc(-c2cnns2)cc1, O=C1NC(=O)c2ccccc2/C1=C/Nc1ccc2cn[nH]c2c1 is higher in melting point: 126 to 128 °C for the first, greater than 300 °C for the second.

First: CC(C)Cn1c(CNC(=O)OC(C)(C)C)c(-c2ccc(Cl)cc2)c2cc(C(N)=O)ccc2c1=O
Second: CC(=O)OCCN1C(=O)C(=Cc2cc(C(C)(C)C)c(O)c(C(C)(C)C)c2)SC1=S
The melting point of the first is higher: 144 to 146 °C for the first, 140 to 143 °C for the second.

First: Cc1nnc(Cl)c(-c2c(F)cc(F)cc2F)c1-c1cccs1
Second: O=C(Nc1ccc(-n2nc(C(F)(F)F)cc2C(F)(F)F)cc1)Nc1ccc(Cl)c([N+](=O)[O-])c1
The melting point of the first is lower: 90 to 92 °C for the first, 207 to 209 °C for the second.

Compared with COc1cc(Cl)c(C=O)c(Cl)c1, CCS(=O)(=O)OC(c1cccc(C(O)(C(F)(F)F)C(F)(F)F)c1)(C(F)(F)F)C(F)(F)F is lower in melting point: 107 to 109 °C for the first, 64 °C for the second.

In the case of CC(C)Sc1sc(-c2nnn[nH]2)c2c1C(=O)CC(C)(C)C2, the melting point was 228 to 230 °C.
